For test [1], the target named is T1, Muscarinic acetylcholine receptor M2 (Homo sapiens, UniProt P08172).
T1 sequence (P08172 whole entry): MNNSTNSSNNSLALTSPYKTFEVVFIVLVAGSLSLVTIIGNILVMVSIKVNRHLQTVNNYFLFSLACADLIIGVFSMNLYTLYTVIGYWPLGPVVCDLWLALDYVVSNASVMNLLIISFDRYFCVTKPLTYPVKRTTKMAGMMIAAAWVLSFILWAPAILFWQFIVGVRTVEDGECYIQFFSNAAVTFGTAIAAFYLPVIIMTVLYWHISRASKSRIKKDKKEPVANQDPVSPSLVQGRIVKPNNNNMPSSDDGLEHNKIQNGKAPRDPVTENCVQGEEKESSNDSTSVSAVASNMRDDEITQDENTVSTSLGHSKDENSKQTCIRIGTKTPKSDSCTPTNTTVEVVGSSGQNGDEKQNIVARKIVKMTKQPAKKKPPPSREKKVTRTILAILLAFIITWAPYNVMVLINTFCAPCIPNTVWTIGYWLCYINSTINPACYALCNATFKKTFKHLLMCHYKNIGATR
In words: Binding affinity of compound was determined towards human Muscarinic acetylcholine receptor M2 using [3H]QNB radioligand.

For test [2], the target named is T2, Muscarinic acetylcholine receptor M5 (Homo sapiens, UniProt P08912).
T2 sequence (P08912 whole entry): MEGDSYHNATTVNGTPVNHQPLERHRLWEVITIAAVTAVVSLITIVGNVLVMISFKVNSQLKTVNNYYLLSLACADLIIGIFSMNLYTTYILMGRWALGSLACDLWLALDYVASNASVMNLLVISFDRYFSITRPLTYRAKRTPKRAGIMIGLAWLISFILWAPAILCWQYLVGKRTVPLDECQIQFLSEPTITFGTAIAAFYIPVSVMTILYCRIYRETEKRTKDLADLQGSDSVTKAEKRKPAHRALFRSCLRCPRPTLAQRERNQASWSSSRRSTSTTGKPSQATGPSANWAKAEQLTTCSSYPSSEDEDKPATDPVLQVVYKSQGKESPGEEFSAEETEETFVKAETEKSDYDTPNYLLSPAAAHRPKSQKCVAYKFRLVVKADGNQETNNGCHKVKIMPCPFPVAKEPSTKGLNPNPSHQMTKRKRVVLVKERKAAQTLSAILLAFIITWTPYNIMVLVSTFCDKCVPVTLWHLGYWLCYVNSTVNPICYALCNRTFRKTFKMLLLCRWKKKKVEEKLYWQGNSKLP
In words: Binding affinity of compound was determined towards human Muscarinic acetylcholine receptor M5 using [3H]QNB radioligand.

In general, Ki refers to a measure of affinity in units of concentration, obtained from inhibition or displacement. Low readings indicate a stronger hold on the target, high ones a looser hold on the target. For `CCOC(=O)C1CN2CC(CCC2COCc2ccccc2)C1=O` (stereo not drawn) [exo-8-Benzyloxymethyl-4-hydroxy-1-aza-bicyclo[3.3.1]non-3-ene-3-carboxylic acid ethyl ester], the results for the Ki in test [1] and in test [2] were 0.08 µM and 0.56 µM, respectively.
